# Reference: patent publication US20120122820A1, “PRODRUGS AND THE USE THEREOF” (Bayer Schering Pharma Aktiengesellschaft, priority 2007, published 2012)
# Where a name gives a salt, the structure may show the parent alone.
# Assays:
# [1] = test system: heart rate of anesthetized rats; assay: Influence on the heart rate of anesthetized rats; type: in vivo; details: maximum decrease in the first 30 min after i.v. bolus of 100 μg/kg of (A) or equivalent dosages; anesthetized male Wistar rats
# Method: Male Wistar rats with a body weight above 250 g are employed. In the night before the experiment, the animals receive no feed but still have free access to drinking water. Preparation and investigations are carried out under Trapanal® anesthesia (100 mg/kg i.p.). Injection and infusion take place through a catheter in the jugular vein, and the blood pressure is recorded via a catheter in the femoral artery (transducer: Braun, Melsungen). After the preparation, the animals are connected to a continuous infusion of physiological saline solution to compensate fluid losses. Test substance or placebo solution are administered intravenously as bolus after an equilibration time of about 1 h. Heart rate and arterial blood pressure are recorded during the equilibration and over a period of at least 30 min after the bolus injection with the aid of a digital evaluation program.
# Table 5 lists the maximum heart rate decrease in the first 30 min after an i.v. bolus of 100 μg/kg of the active substance (A) or of equivalent dosages of representative exemplary embodiments: […]
# [2] = Determination of the solubility (24 h shaking at room temperature, ultracentrifugation, HPLC); type: physicochemical; details: thermodynamic from solid
# Method: The test substance is suspended in water or dilute hydrochloric acid (pH 4) [Examples 1-21] or in 5% strength aqueous dextrose solution [Examples 22-40]. This suspension is shaken at room temperature for 24 h. After ultracentrifugation at 224 000 g for 30 min, the supernatant is diluted with DMSO and analyzed by HPLC. A two-point calibration plot of the test compound in DMSO is used for quantification.
# Agilent 1100 with DAD (G1315A), quat. pump (G1311A), autosampler CTC HTS PAL, degasser (G1322A) and column thermostat (G1316A); column: Phenomenex Gemini C18, 5 μm, 50 mm×2 mm; temperature: 40° C.; eluent A: water/phosphoric acid pH 2, eluent B: acetonitrile; flow rate: 0.7 ml/min; gradient: 0-0.5 min 85% A, 15% B; ramp 0.5-3 min 10% A, 90% B; 3-3.5 min 10% A, 90% B; ramp 3.5-4 min 85% A, 15% B; 4-5 min 85% A, 15% B.
# Agilent 1100 with DAD (G1315A), quat. pump (G1311A), autosampler CTC HTS PAL, degasser (G1322A) and column thermostat (G1316A); column: VDSoptilab Kromasil 100 C18, 3.5 μm, 60 mm×2.1 mm; temperature: 30° C.; eluent A: water+5 ml of perchloric acid/liter, eluent B: acetonitrile; flow rate: 0.75 ml/min; gradient: 0-0.5 min 98% A, 2% B; ramp 0.5-4.5 min 10% A, 90% B; 4.5-6 min 10% A, 90% B; ramp 6.5-6.7 min 98% A, 2% B; 6.7-7.5 min 98% A, 2% B.
# [3] = i.v. pharmacokinetics in Wistar rats; type: in vivo; details: after i.v. bolus administration, male Wistar rats
# Method: (§1) On the day before administration of the substance, a catheter for obtaining blood is implanted in the jugular vein of the experimental animals (male Wistar rats, body weight 200-250 g) under Isofluran® anesthesia.
# (§2) On the day of the experiment, a defined dose of the test substance is administered as solution into the tail vein using a Hamilton® glass syringe (bolus administration, duration of administration <10 s). Blood samples (8-12 time points) are taken through the catheter sequentially over the course of 24 h after administration of the substance. Plasma is obtained by centrifuging the samples in heparinized tubes. Acetonitrile is added to a defined plasma volume per time point to precipitate proteins. After centrifugation, test substance and, where appropriate, known cleavage products of the test substance in the supernatant are determined quantitatively using a suitable LC/MS-MS method.
# The measured plasma concentrations are used to calculate pharmacokinetic parameters of the test substance and of the active ingredient compound (A) liberated therefrom, such as AUC, Cmax, T1/2 (half-life) and CL (clearance).
# [4] = Stability in buffer at various pH values; type: physicochemical
# Method: 0.3 mg of the test substance is weighed into a 2 ml HPLC vial and 0.5 ml of acetonitrile or acetonitrile/DMSO (9:1) is added. The substance is dissolved by putting the sample vessel in an ultrasonic bath for about 10 seconds. Then 0.5 ml of the respective (buffer) solution is added, and the sample is again treated in the ultrasonic bath.
# • pH 4: 1 liter of Millipore water is adjusted to pH 4.0 with 1 N hydrochloric acid; • pH 5: 0.096 mol of citric acid and 0.2 mol of sodium hydroxide ad 1 liter of water; • pH 7.4: 90.0 g of sodium chloride, 13.61 g of potassium dihydrogen phosphate and 83.35 g of 1 N sodium hydroxide solution are made up to 1 liter with water; this solution is then further diluted 1:10 with Millipore water. • pH 8: 0.013 mol of borax and 0.021 mol of hydrochloric acid ad 1 liter of water.
# 5 μl portions of the sample solution are analyzed by HPLC for their content of unchanged test substance, and of parent substance (A) produced, every hour over a period of 24 hours at 37° C. The percentage areas of the appropriate peaks are used for quantification.
# HPLC method for Examples 1-21:
# Agilent 1100 with DAD (G1314A), binary pump (G1312A), autosampler (G1329A), column oven (G1316A), thermostat (G1330A); column: Kromasil 100 C18, 60 mm×2.1 mm, 3.5 μm; column temperature: 30° C.; eluent A: water+5 ml of perchloric acid/liter, eluent B: acetonitrile; gradient: 0-1.0 min 98% A, 2% B; 1.0-9.0 min 2% A, 98% B; 9.0-13.0 min 2% A, 98% B; 13.0-13.5 min 98% A, 2% B; 13.5-15.0 min 98% A, 2% B; flow rate: 0.75 ml/min; UV detection: 210 nm.
# HPLC method for Examples 22-40:
# The ratios of the peak areas (F) at the respective time points in relation to the peak areas at the starting time are shown in Table 3 for representative exemplary embodiments: […]
# [5] = Oral pharmacokinetics in Wistar rats; type: in vivo; details: after oral administration (gavage), male Wistar rats
# Method: as §1
# as §2, with “stomach by gavage.” for “tail vein using a Hamilton® glass syringe (bolus administration, duration of administration <10 s).”
# The measured plasma concentrations are used to calculate pharmacokinetic parameters of the test substance and of the active ingredient compound (A) liberated therefrom, such as AUC, Cmax, T1/2 (half-life).
Structure (SMILES),Heart rate decrease [1] [%],"solubility at 24 h ([2]; aqueous buffer, dilute hydrochloric acid (pH 4)) [mg/mL]",Detectability of the test substance (prodrug) in plasma [3],"% test substance after 4 h [F(t = 4 h) × 100/F(t = 0 h)] ([4]; pH 4, 37° C.) [%]","% test substance after 24 h [F(t = 24 h) × 100/F(t = 0 h)] ([4]; pH 4, 37° C.) [%]","% test substance after 4 h [F(t = 4 h) × 100/F(t = 0 h)] ([4]; pH 8, 37° C.) [%]","% test substance after 24 h [F(t = 24 h) × 100/F(t = 0 h)] ([4]; pH 8, 37° C.) [%]",Detectability of the test substance (prodrug) in plasma [5],"solubility at 24 h ([2]; saline or isotonic, 5% strength aqueous dextrose solution) [mg/mL]","% test substance after 4 h [F(t = 4 h) × 100/F(t = 0 h)] ([4]; pH 7.4, 37° C.) [%]","% test substance after 24 h [F(t = 24 h) × 100/F(t = 0 h)] ([4]; pH 7.4, 37° C.) [%]"
"CN(C)CC(=O)OCCOc1ccc(-c2c(C#N)c(N)nc(SCc3csc(-c4ccc(Cl)cc4)n3)c2C#N)cc1 [Example 15, 2-{4-[2-Amino-6-({[2-(4-chlorophenyl)-1,3-thiazol-4-yl]methyl}thio)-3,5-dicyanopyridin-4-yl]-phenoxy}ethyl (N,N-dimethyl)glycinate]",21,0.24,no longer detectable in plasma even at the first measurement point,93,91,90,76,no longer detectable in plasma even at the first measurement point,–,–,–
"N#Cc1c(N)nc(SCc2csc(-c3ccc(Cl)cc3)n2)c(C#N)c1-c1ccc(OCCOC(=O)[C@@H](N)CCCN)cc1 [Example 22, 2-{4-[2-Amino-6-({[2-(4-chlorophenyl)-1,3-thiazol-4-yl]methyl}thio)-3,5-dicyanopyridin-4-yl]-phenoxy}ethyl L-ornithinate dihydrochloride]",13,–,no longer detectable in plasma even at the first measurement point,100,100,–,–,no longer detectable in plasma even at the first measurement point,> 0.5,0,0
